The values that follow come from BindingDB's records for doi:10.1021/jm960416g (Universidad Complutense, 1996).

As usually defined, the Ki is a dissociation constant, usually derived from enzyme kinetics or from competition with a known ligand. The low end stands for higher affinity, the high end for lower affinity.

Assay [1] concerns the target T1, 5-hydroxytryptamine receptor 1A (Rattus norvegicus, UniProt P19327).
T1 sequence (P19327 whole entry): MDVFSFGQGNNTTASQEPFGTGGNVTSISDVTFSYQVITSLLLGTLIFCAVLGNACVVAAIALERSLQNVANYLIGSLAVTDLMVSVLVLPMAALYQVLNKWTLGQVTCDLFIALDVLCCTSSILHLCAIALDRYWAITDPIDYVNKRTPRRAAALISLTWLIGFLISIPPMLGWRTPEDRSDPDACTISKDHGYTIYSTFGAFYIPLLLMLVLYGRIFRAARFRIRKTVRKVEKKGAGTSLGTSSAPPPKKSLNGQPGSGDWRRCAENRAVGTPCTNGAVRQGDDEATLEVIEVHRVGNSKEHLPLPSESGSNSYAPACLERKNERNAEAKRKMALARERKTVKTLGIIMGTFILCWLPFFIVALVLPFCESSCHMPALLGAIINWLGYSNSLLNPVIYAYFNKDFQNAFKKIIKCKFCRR
The assay is described as follows: Binding affinity towards rat 5-hydroxytryptamine 1A receptor using [3H]8-OH-DPAT radioligand.

For the next assay, the target named is D(2) dopamine receptor (Rattus norvegicus, UniProt P61169). The assay can be described thus: Binding affinity towards dopamine receptor D2 using [3H]-raclopride radioligand.
Chain of D(2) dopamine receptor (P61169 whole entry): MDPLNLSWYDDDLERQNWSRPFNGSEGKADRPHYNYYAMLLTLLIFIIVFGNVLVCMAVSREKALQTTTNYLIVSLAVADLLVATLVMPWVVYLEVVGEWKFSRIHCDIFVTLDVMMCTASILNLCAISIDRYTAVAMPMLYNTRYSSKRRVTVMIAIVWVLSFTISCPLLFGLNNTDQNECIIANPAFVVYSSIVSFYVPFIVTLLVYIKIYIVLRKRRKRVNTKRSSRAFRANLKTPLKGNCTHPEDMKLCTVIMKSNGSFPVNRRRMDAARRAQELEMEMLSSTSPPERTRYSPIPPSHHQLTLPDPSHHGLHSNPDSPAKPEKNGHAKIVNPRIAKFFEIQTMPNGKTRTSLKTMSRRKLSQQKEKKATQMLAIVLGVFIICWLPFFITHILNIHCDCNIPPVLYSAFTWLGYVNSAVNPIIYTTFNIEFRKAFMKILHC

On to `O=c1n(CCN2CCN(c3ccc(F)cc3)CC2)c(O)c2n1CCC2` [2-{2-[4-(4-Fluoro-phenyl)-piperazin-1-yl]-ethyl}-tetrahydro-pyrrolo[1,2-c]imidazole-1,3-dione], for which the Ki (in assay [1]; on D(2) dopamine receptor) was more than 10 µM each time.

For `O=c1n(CCN2CCN(c3ccccc3)CC2)c(O)c2n1CCCC2` [2-[2-(4-Phenyl-piperazin-1-yl)-ethyl]-tetrahydro-imidazo[1,5-a]pyridine-1,3-dione], the Ki (in assay [1]; on D(2) dopamine receptor) was more than 1 µM each time.
